Results: the supplement of paper PMC10307832

Assays:
Experiment in all cases: relative viability (nuclei count vs DMSO), 5 days (fraction); higher = more cells survive
Obatoclax + Crizotinib = compound: COC1=CC(c2cc3ccccc3[nH]2)=N/C1=C\c1[nH]c(C)cc1C [Obatoclax] + C[C@@H](Oc1cc(-c2cnn(C3CCNCC3)c2)cnc1N)c1c(Cl)ccc(F)c1Cl [Crizotinib] (partner 1 µM)
Summary of the method: (§1)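 Lung cancer cell lines in 1536-well plates were dosed by pin tool the day after seeding, either with one drug alone or with a fixed anchor-drug dose plus five library-drug doses (not always all listed) in √10 steps. After 5 days, cells were fixed and their nuclei stained in one step (final 0.05% Triton X-100, 1% formaldehyde, 1 ug/ml Hoechst), then counted on 4× images. Relative viability is the nuclei count in treated wells divided by that in vehicle wells. Values are medians of duplicate plates.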

Bortezomib + Trametinib = compound: CC(C)C[C@H](NC(=O)[C@H](Cc1ccccc1)NC(=O)c1cnccn1)B(O)O [Bortezomib] + CC(=O)Nc1cccc(-n2c(=O)n(C3CC3)c(=O)c3c(Nc4ccc(I)cc4F)n(C)c(=O)c(C)c32)c1 [Trametinib] (partner 0.02 µM)
Summary of the method: as §1

[1] = compound: CC1=CC(=NN1)NC2=CC(=NC(=N2)/C=C/C3=CC=CC=C3)N4CCN(CC4)C + CCNC(=O)c1noc(-c2cc(C(C)C)c(O)cc2O)c1-c1ccc(CN2CCOCC2)cc1 [Luminespib] (partner 0.01 µM)
Summary of the method: as §1

Obatoclax + Tozasertib = compound: COC1=CC(c2cc3ccccc3[nH]2)=N/C1=C\c1[nH]c(C)cc1C [Obatoclax] + Cc1cc(Nc2cc(N3CCN(C)CC3)nc(Sc3ccc(NC(=O)C4CC4)cc3)n2)n[nH]1 [Tozasertib] (partner 0.1 µM)
Summary of the method: as §1

Row | Cell Line | relative viability (Obatoclax + Crizotinib; first compound 0.01 µM) | relative viability (Obatoclax + Crizotinib; first compound 0.03162 µM) | relative viability (Obatoclax + Crizotinib; first compound 0.1 µM) | relative viability (Obatoclax + Crizotinib; first compound 0.3162 µM) | relative viability (Obatoclax + Crizotinib; first compound 1 µM) | relative viability (Bortezomib + Trametinib; first compound 0.0002 µM) | relative viability (Bortezomib + Trametinib; first compound 0.000632 µM) | relative viability (Bortezomib + Trametinib; first compound 0.002 µM) | relative viability (Bortezomib + Trametinib; first compound 0.006325 µM) | relative viability (Bortezomib + Trametinib; first compound 0.02 µM) | relative viability ([1]; first compound 0.08 µM) | relative viability ([1]; first compound 0.253 µM) | relative viability ([1]; first compound 0.8 µM) | relative viability ([1]; first compound 2.53 µM) | relative viability ([1]; first compound 8 µM) | relative viability (Obatoclax + Tozasertib; first compound 0.01 µM) | relative viability (Obatoclax + Tozasertib; first compound 0.03162 µM) | relative viability (Obatoclax + Tozasertib; first compound 0.1 µM) | relative viability (Obatoclax + Tozasertib; first compound 0.3162 µM) | relative viability (Obatoclax + Tozasertib; first compound 1 µM)
1 | 201T | 1.01 | 1.03 | 1.04 | 0.996 | 1.06 | 0.732 | 0.72 | 0.685 | 0.625 | 0.262 | 1.01 | 1.04 | 1.01 | 0.947 | 0.266 | 0.896 | 0.94 | 0.93 | 0.876 | 1.04
2 | A549 | 0.75 | 0.799 | 0.752 | 0.664 | 0.0778 | – | – | – | – | – | – | – | – | – | – | – | – | – | – | –
3 | A-427 | 0.958 | 0.792 | 0.802 | 0.999 | 0.968 | 0.657 | 0.842 | 0.696 | 0.216 | 0.161 | 0.775 | 0.984 | 0.873 | 0.361 | 0.105 | 0.164 | 0.24 | 0.243 | 0.212 | 0.191
4 | ABC-1 | 1.2 | 1.18 | 1.6 | 1.06 | 0.723 | – | – | – | – | – | 0.497 | 0.51 | 0.961 | 0.701 | 0.19 | 0.181 | 0.17 | 0.177 | 0.209 | 0.223
5 | BEN | 0.897 | 0.841 | 0.853 | 0.75 | 0.817 | 0.856 | 0.953 | 0.87 | 0.829 | 0.29 | 0.634 | 0.207 | 0.22 | 0.217 | 0.137 | 0.491 | 0.467 | – | 0.626 | 0.506
6 | CAL-12T | 0.511 | 0.797 | 0.492 | 0.382 | 0.105 | 0.378 | 0.335 | 0.327 | 0.156 | 0.133 | 0.429 | 0.512 | 0.356 | 0.123 | 0.074 | 0.389 | 0.326 | 0.36 | 0.153 | 0.0881
7 | COR-L23 | 0.632 | 0.696 | 0.635 | 0.212 | 0.174 | 0.478 | 0.586 | 0.704 | 0.0593 | 0.06 | 0.723 | 0.813 | 0.593 | 0.398 | 0.0972 | 0.233 | 0.182 | 0.217 | 0.111 | 0.108
8 | COR-L 105 | 0.802 | 0.959 | 1 | 0.51 | 0.522 | 0.449 | 0.42 | 0.414 | 0.375 | 0.376 | 0.553 | 0.784 | 0.736 | 0.654 | 0.197 | 0.381 | 0.316 | 0.345 | 0.284 | 0.248
9 | Calu-6 | 0.778 | 0.769 | 0.736 | 0.739 | 0.137 | – | – | – | – | – | – | – | – | – | – | – | – | – | – | –
10 | ChaGo-K-1 | 1.26 | 0.996 | – | 1.15 | 1.02 | 0.882 | 0.89 | 0.85 | 0.279 | 0.144 | 0.644 | 0.613 | 0.629 | 0.384 | 0.159 | 0.247 | 0.24 | 0.243 | 0.24 | 0.235
11 | EBC-1 | 0.176 | 0.198 | 0.197 | 0.19 | 0.168 | – | – | – | – | – | – | – | – | – | – | – | – | – | – | –
12 | EKVX | 0.867 | 0.979 | 0.979 | 0.914 | 0.643 | 0.345 | 0.38 | 0.208 | 0.174 | 0.0845 | 0.852 | 0.981 | 0.984 | 0.758 | 0.261 | 0.371 | 0.357 | 0.466 | 0.385 | 0.394
13 | EMC-BAC-2 | 0.777 | 0.725 | 0.738 | 0.745 | 0.634 | 1.02 | 1.01 | 0.803 | 0.341 | 0.307 | 1.2 | 1.21 | 1.15 | 0.733 | 0.271 | 0.279 | 0.294 | 0.25 | 0.289 | 0.263
14 | EPLC-272H | 0.873 | 0.682 | 0.803 | 0.941 | 0.946 | 0.324 | 0.279 | 0.233 | 0.073 | 0.0585 | 0.456 | 0.458 | 0.149 | 0.11 | 0.0775 | 0.255 | 0.229 | 0.343 | 0.326 | 0.545
15 | H3255 | 0.773 | 0.87 | 0.828 | 0.624 | 0.697 | 0.593 | 0.69 | 0.331 | 0.239 | 0.274 | 1.03 | 0.991 | 0.892 | 0.771 | 0.559 | 0.6 | 0.796 | 0.513 | 0.638 | 0.73
16 | HARA | 1.01 | 1.03 | 1.1 | 1.05 | 0.382 | 0.642 | 0.592 | 0.896 | 0.0979 | 0.189 | 0.699 | 0.791 | 0.348 | 0.139 | 0.043 | 0.101 | 0.154 | 0.146 | 0.124 | 0.132
17 | HCC-15 | 0.768 | 0.821 | 0.741 | 0.776 | 0.689 | 0.39 | 0.394 | 0.426 | 0.117 | 0.104 | 0.497 | 0.349 | 0.444 | 0.237 | 0.108 | 0.371 | 0.35 | 0.463 | 0.456 | 0.287
18 | HCC-44 | 0.786 | 0.684 | 0.8 | 0.721 | 0.228 | 1.1 | 1.04 | 0.984 | 0.92 | 0.277 | 1.04 | 1.53 | 0.993 | 0.842 | 0.164 | 0.907 | 1.03 | 0.556 | 0.376 | 0.196
